Measured values published in ChEMBL document CHEMBL3580661, “Structure-Guided Design of Group I Selective p21-Activated Kinase Inhibitors” (J Med Chem, 2015).
Converted amounts (≈) assume the structure as drawn.

Experiments:
[1] = biological target: T1, Serine/threonine-protein kinase PAK 1 (Homo sapiens, UniProt Q13153); experiment: Inhibition of human recombinant PAK1 kinase domain using coumarin/fluorescein-labeled FRET peptide as substrate assessed as substrate phosphorylation at Ser/Thr19 preincubated for 10 mins followed by ATP addition measured after 60 mins by Z'-LYTE assay
[2] = Metabolic stability in rat liver S9 fraction assessed as compound remaining at 1 uM measured at 60 mins in presence of NADPH; format: ADME, subcellular; details: read-out: Stability
[3] = biological target: T2, Serine/threonine-protein kinase PAK 4 (Homo sapiens, UniProt O96013); experiment: Inhibition of human recombinant PAK4 kinase domain using coumarin/fluorescein-labeled FRET peptide as substrate assessed as substrate phosphorylation at Ser/Thr19 preincubated for 10 mins followed by ATP addition measured after 60 mins by Z'-LYTE assay
[4] = system: Liver; experiment: Metabolic stability in rat liver S9 fraction at 1 uM after 60 mins in absence of NADPH; format: ADME; details: s9, 1 h
[5] = Drug metabolism in rat liver S9 fraction assessed as N-acetyltransferase-mediated metabolite formation by measuring parent compound level at 1 uM after 60 mins in presence of acetyl CoA, NADPH; format: ADME, subcellular; details: s9, 1 h
[6] = Apparent permeability across apical to basolateral side in MDCK cells; format: ADME, cell-based, Canis lupus familiaris; details: dog
[7] = biological target: T1, Serine/threonine-protein kinase PAK 1; experiment: Inhibition of PAK1 in human EBC1 cells assessed as inhibition of MEK phosphorylation at S298 after 2 hrs by HTRF assay; format: cell-based
[8] = Apparent permeability across basolateral to apical side in MDCK cells; format: ADME, cell-based, Canis lupus familiaris; details: dog
[9] = Plasma clearance in rat at 2 mg/kg, iv administered as bolus dose; format: ADME, organism-based
[10] = Plasma protein binding in rat; format: ADME, cell-free; details: read-out: PPB (converted)
[11] = Drug metabolism in rat liver S9 fraction assessed as N-acetyltransferase-mediated metabolite formation by measuring parent compound level at 1 uM after 80 mins in presence of acetyl CoA, NADPH; format: ADME, subcellular; details: s9, 80 min
[12] = Drug metabolism in rat liver S9 fraction assessed as oxidative metabolite formation by measuring parent compound level at 1 uM measured over 60 mins in presence of NADPH; format: ADME, subcellular; details: s9, 1 h
[13] = Drug metabolism in rat liver S9 fraction assessed as glucuronide metabolite formation at 1 uM in presence of UDPGA; format: ADME, subcellular; details: s9, 1 µM
[14] = Lipophilicity, log D of the compound at pH 7.4; format: physicochemical; details: buffer
[15] = system: Rattus norvegicus; experiment: Plasma clearance in rat at 2.5 mg/kg, iv administered as bolus dose; format: ADME, organism-based; details: in vivo
[16] = system: Hepatocyte; experiment: Drug uptake in mouse hepatocytes; format: ADME, cell-based
[17] = Kinetic solubility of the compound; format: physicochemical; details: read-out: Kinetic_solubility
[18] = Lipophilicity, log D of the compound; format: physicochemical; details: octanol/water
[19] = system: Liver; experiment: Metabolic stability in rat liver S9 fraction at 1 uM after 60 mins in presence of NADPH; format: ADME, subcellular; details: s9, 1 h
[20] = system: Mus musculus; experiment: Plasma clearance in mouse at 2 mg/kg, iv administered as bolus dose; format: ADME, organism-based; details: in vivo
[21] = Plasma clearance in rat at 1 mg/kg, iv administered as bolus dose; format: ADME, organism-based
[22] = biological target: T1, Serine/threonine-protein kinase PAK 1; experiment: Inhibition of PAK1 (unknown origin)
[23] = biological target: T2, Serine/threonine-protein kinase PAK 4; experiment: Inhibition of human PAK4
[24] = Drug metabolism in rat liver S9 fraction assessed as N-acetyltransferase-mediated metabolite formation at 1 uM measured over 60 mins in presence of acetyl CoA, NADPH; format: ADME, subcellular; details: s9, 1 h
[25] = biological target: T3, Aurora kinase A (Homo sapiens, UniProt O14965); experiment: Inhibition of aurora A (unknown origin)
T3 sequence (O14965 whole entry): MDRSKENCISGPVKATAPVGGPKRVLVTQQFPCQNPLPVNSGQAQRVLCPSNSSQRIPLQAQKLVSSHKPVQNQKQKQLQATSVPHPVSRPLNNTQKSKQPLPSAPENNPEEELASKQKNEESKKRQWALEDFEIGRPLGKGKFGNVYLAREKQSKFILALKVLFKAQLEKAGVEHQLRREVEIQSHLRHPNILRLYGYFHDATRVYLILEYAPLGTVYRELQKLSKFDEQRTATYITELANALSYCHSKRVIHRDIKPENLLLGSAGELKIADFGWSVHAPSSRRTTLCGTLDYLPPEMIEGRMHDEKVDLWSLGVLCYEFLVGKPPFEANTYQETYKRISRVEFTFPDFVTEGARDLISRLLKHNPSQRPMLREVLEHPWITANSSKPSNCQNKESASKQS

[26] = Oral bioavailability in rat at 5 mg/kg; format: ADME, organism-based; details: in vivo

T1 sequence (Q13153 whole entry, the tested form may be a part): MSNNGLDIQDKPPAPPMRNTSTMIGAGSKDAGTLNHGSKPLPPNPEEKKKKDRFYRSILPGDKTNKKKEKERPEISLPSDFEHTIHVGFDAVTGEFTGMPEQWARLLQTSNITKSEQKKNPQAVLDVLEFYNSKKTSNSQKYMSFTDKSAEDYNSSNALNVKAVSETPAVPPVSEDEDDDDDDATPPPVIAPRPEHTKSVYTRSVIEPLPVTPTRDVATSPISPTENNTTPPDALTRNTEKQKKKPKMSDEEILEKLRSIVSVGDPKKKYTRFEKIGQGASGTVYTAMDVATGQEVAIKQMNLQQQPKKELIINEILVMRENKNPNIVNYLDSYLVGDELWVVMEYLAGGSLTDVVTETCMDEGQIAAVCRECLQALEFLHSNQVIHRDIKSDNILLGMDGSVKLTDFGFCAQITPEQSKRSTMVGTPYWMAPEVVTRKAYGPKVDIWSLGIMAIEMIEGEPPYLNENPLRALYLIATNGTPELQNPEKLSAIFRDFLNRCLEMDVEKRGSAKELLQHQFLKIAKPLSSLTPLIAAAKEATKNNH
T2 sequence (O96013 whole entry, the tested form may be a part): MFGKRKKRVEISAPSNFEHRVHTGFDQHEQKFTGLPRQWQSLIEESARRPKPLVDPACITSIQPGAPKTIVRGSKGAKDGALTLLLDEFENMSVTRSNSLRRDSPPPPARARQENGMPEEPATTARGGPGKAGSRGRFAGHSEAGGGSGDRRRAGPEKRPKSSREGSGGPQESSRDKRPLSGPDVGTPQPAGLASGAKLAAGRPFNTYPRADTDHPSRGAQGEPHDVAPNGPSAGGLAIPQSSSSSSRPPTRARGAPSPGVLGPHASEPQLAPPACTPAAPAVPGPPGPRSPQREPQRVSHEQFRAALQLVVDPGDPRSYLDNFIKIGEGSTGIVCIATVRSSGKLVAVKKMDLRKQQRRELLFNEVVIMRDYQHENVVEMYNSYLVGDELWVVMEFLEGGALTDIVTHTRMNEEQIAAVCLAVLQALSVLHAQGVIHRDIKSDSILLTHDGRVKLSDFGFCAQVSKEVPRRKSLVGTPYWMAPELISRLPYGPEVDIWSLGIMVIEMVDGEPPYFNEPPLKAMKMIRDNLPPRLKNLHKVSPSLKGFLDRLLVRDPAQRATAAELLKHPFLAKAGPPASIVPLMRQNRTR

CCc1cc(Nc2nc(N3CCC(N)CC3)nc3ccsc23)n[nH]1
Ki [1]: 33 nM

NC1CCN(c2nc(Nc3cc(C4CC4)[nH]n3)c3sccc3n2)CC1
remaining at 1 h, 1 µM [2]: 51% | Ki [1]: 22 nM | Ki [3]: 12 nM | Stability [4]: Stable | Stability [5]: < 1%

C[C@@H](Nc1nccc(Nc2cc(C3CC3)[nH]n2)n1)c1ccc2[nH]ccc2c1
Ki [1]: 1900 nM

NC1CCN(c2cc(Nc3cc(C4CC4)[nH]n3)ccn2)CC1
Ki [1]: 4390 nM | Ki [3]: 1820 nM

C[C@H](Nc1nccc(Nc2cc(C3CC3)[nH]n2)n1)c1ccc2[nH]cnc2c1
Papp A→B [6]: 0.9 ×10⁻⁶ cm/s | IC50 [7]: 281 nM | Papp B→A [8]: 6.8 ×10⁻⁶ cm/s | Ki [1]: 12 nM | clearance [9]: 20.3 mL/min/kg | fraction unbound [10]: 0.011 | Ki [3]: 106 nM

CNc1ccc(CNc2nccc(Nc3cc(C4CC4)[nH]n3)n2)cn1
Ki [1]: 346 nM | Ki [3]: 610 nM

Nc1ccc(CNc2nccc(Nc3cc(C4CC4)[nH]n3)n2)cn1
Stability [11]: 50% | Ki [1]: 138 nM | clearance [9]: 122 mL/min/kg | Stability [12]: 60% | Ki [3]: 563 nM | Drug metabolism [13]: metabolite_notdetected

NC1CCN(c2nccc(Nc3cc(C4CC4)[nH]n3)n2)CC1
Ki [1]: 454 nM | Ki [3]: 283 nM

c1cc(Nc2cc(C3CC3)[nH]n2)nc(NCc2ccc3[nH]ccc3c2)n1
Ki [1]: 27 nM | clearance [9]: 30.1 mL/min/kg | Ki [3]: 144 nM | logD [14]: 3

NC1CCN(c2cccc(Nc3cc(C4CC4)[nH]n3)n2)CC1
Ki [1]: 561 nM | Ki [3]: 612 nM

CCCc1cc(Nc2nc(N3CCC(N)CC3)nc3ccsc23)n[nH]1
Ki [1]: 48 nM

CC(C)c1cc(Nc2nc(N3CCC(N)CC3)nc3ccsc23)n[nH]1
Ki [1]: 33 nM

N[C@H]1CC[C@H](CNc2nccc(Nc3cc(C4CC4)[nH]n3)n2)CC1
Papp A→B [6]: 0.5 ×10⁻⁶ cm/s | IC50 [7]: 2200 nM | Papp B→A [8]: 2 ×10⁻⁶ cm/s | Ki [1]: 26 nM | clearance [15]: 158 mL/min/kg | Ki [3]: 38 nM | Stability [4]: Stable | Drug uptake [16]: Active | solubility kinetic [17]: 149 µM (≈ 48.9 µg/mL) | logD [18]: -0.2 | Stability [19]: Stable | clearance [20]: 83 mL/min/kg | Stability [5]: 69.3%

Clc1c(CNc2nccc(Nc3cc(C4CC4)[nH]n3)n2)ccc2[nH]cnc12
Papp A→B [6]: 2.8 ×10⁻⁶ cm/s | clearance [21]: 6.4 mL/min/kg | IC50 [7]: 362 nM | Papp B→A [8]: 6.3 ×10⁻⁶ cm/s | Ki [1]: 5 nM | fraction unbound [10]: 0.002 | Ki [3]: 455 nM

N[C@@H]1[C@H]2CN(c3nc(Nc4cc(C5CC5)[nH]n4)c4sccc4n3)C[C@@H]12
Ki [22]: 50 nM | Ki [23]: 2 nM

Cn1cnc2cc(CNc3nccc(Nc4cc(C5CC5)[nH]n4)n3)ccc21
Ki [1]: 607 nM | Ki [3]: 1660 nM

c1cc(Nc2cc(C3CC3)[nH]n2)nc(NCc2ccc3[nH]cnc3c2)n1
Ki [1]: 117 nM | clearance [9]: 24.1 mL/min/kg | Ki [3]: 961 nM | Drug metabolism [24]: metabolite_notdetected | logD [14]: 2.5

NC1CCN(c2nc(Nc3cc(-c4ccccc4)[nH]n3)c3sccc3n2)CC1
Ki [1]: 660 nM

N[C@H]1CC[C@H](Nc2nccc(Nc3cc(C4CC4)[nH]n3)n2)CC1
Ki [1]: 157 nM | Ki [3]: 100 nM

N[C@H]1CC[C@@H](CNc2nccc(Nc3cc(C4CC4)[nH]n3)n2)CC1
Ki [1]: 21 nM | Ki [3]: 4 nM

NC1CCN(c2nc(Nc3cc(C4CC4)[nH]n3)c3occc3n2)CC1
Ki [1]: 119 nM | Ki [3]: 45 nM

Cn1cnc2ccc(CNc3nccc(Nc4cc(C5CC5)[nH]n4)n3)cc21
Ki [1]: 584 nM | Ki [3]: 1900 nM

CCN(Cc1ccc2[nH]cnc2c1Cl)c1nccc(Nc2cc(C3CC3)[nH]n2)n1
Papp A→B [6]: 7.4 ×10⁻⁶ cm/s | clearance [21]: 61 mL/min/kg | IC50 [7]: 85 nM | Papp B→A [8]: 11.1 ×10⁻⁶ cm/s | Ki [1]: 5 nM | fraction unbound [10]: 0.007 | Ki [3]: 547 nM | Ki [25]: 5.3 nM

c1cc(Nc2cc(C3CC3)[nH]n2)nc(NCC2CCNCC2)n1
Ki [1]: 245 nM | Ki [3]: 80 nM

CN(Cc1ccc2[nH]cnc2c1Cl)c1nccc(Nc2cc(C3CC3)[nH]n2)n1
bioavailability [26]: 12% | Papp A→B [6]: 1.9 ×10⁻⁶ cm/s | clearance [21]: 67 mL/min/kg | IC50 [7]: 110 nM | Papp B→A [8]: 18 ×10⁻⁶ cm/s | Ki [1]: 4 nM | fraction unbound [10]: 0.011

C[C@H](Nc1nccc(Nc2cc(C3CC3)[nH]n2)n1)c1ccc2[nH]ccc2c1
IC50 [7]: 120 nM | Ki [1]: 31 nM | clearance [9]: 30 mL/min/kg | Ki [3]: 42 nM

CN(C)c1ccc(CNc2nccc(Nc3cc(C4CC4)[nH]n3)n2)cn1
Ki [1]: 1470 nM | Ki [3]: 907 nM

NC1CCN(c2nc(Nc3cc(C4CCC4)[nH]n3)c3sccc3n2)CC1
Ki [1]: 18 nM

Fc1c(CNc2nccc(Nc3cc(C4CC4)[nH]n3)n2)ccc2[nH]cnc12
Ki [1]: 179 nM | Ki [3]: 1110 nM

Cc1cc(Nc2nc(N3CCC(N)CC3)nc3ccsc23)n[nH]1
Ki [1]: 179 nM

CC1CCN(c2nc(Nc3cc(C4CC4)n[nH]3)c3ccccc3n2)CC1
Ki [22]: 100 nM | Ki [23]: 49 nM
